Experimental data reported in ChEMBL document CHEMBL1201862, “PubChem BioAssay data set” (2004).
Several values for one entry are separate records, joined by “and”; a condition that tells them apart may be missing. Identical values can stand only once. Activity calls are given as the source filed them.

Columns and labels:
[1] = Luminescence Cell-Based Dose Response HTS to Identify Inhibitors of 5'UTR Stem-Loop Driven Prion Protein mRNA Translation in H4 Neuroglioblastoma Cells. [Related pubchem assays: 1827 (Project Summary), 1813 (Primary HTS)]; format: functional
[2] = test system: Streptococcus; assay: Group A Streptococcus viability loss, dose response, counter-screen for streptokinase expression inhibitor project, luminescence, BacTiterGlo (AID 1915); format: functional, organism-based;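 note: potency for reduction of bacterial viability or growth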
[3] = test system: Streptococcus sp. 'group A'; assay: growth inhibition of control SK(-) GAS strain, dose response, counter-screen for streptokinase expression inhibitor project, luminescence, kanamycin, BacTiterGlo, confirmation (AID 1900); format: functional, organism-based
[4] = Vero cell cytotoxicity, dose response, cytotoxicity control for Vif-APOBEC3G degradation inhibitor project, Vero cells (AID 1117358); format: functional; settings: Human immunodeficiency virus 1, Vero
[5] = molecular target: T1, Streptokinase A (Streptococcus pyogenes serotype M1, UniProt P10520); assay: S. pyogenes streptokinase expression inhibitors, potency, dose response, plasminogen activation absorbance, OD405 (AID 1914); format: functional, Streptococcus pyogenes M1 GAS;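 note: secreted streptokinase activity via plasminogen activation per viability signal from cell pellet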
T1 sequence (P10520 whole entry): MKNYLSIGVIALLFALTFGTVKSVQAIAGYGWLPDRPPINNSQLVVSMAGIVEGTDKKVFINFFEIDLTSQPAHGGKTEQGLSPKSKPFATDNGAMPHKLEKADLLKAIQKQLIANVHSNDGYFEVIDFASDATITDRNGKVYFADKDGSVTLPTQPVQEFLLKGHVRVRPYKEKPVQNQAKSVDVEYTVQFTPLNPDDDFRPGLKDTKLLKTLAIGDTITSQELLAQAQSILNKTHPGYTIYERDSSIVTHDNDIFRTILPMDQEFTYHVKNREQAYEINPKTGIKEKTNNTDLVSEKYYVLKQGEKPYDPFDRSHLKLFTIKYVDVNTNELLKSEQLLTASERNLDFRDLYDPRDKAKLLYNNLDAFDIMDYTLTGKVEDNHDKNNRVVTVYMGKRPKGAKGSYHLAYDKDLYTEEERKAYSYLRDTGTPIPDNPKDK

[6] = inhibitors of firefly luciferase expression or activity, dose response, H4 neuroglioma cells, luminescence (AID 1990); format: functional, cell-based
[7] = inhibitors of SNCA 5'UTR-driven reporter translation, confirmation, H4 neuroglioma cells, luminescence (AID 1988); format: functional, cell-based
[8] = molecular target: T2, Short transient receptor potential channel 4 (Mus musculus, UniProt Q9QUQ5); assay: mouse TRPC4 channel inhibitors, dose response, cell-based, HEK293 TRPC4/mu-opioid, Fluo-4 calcium (AID 434942); format: functional;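 note: potency of inhibitors blocking the TRPC4 calcium response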
T2 sequence (Q9QUQ5 whole entry): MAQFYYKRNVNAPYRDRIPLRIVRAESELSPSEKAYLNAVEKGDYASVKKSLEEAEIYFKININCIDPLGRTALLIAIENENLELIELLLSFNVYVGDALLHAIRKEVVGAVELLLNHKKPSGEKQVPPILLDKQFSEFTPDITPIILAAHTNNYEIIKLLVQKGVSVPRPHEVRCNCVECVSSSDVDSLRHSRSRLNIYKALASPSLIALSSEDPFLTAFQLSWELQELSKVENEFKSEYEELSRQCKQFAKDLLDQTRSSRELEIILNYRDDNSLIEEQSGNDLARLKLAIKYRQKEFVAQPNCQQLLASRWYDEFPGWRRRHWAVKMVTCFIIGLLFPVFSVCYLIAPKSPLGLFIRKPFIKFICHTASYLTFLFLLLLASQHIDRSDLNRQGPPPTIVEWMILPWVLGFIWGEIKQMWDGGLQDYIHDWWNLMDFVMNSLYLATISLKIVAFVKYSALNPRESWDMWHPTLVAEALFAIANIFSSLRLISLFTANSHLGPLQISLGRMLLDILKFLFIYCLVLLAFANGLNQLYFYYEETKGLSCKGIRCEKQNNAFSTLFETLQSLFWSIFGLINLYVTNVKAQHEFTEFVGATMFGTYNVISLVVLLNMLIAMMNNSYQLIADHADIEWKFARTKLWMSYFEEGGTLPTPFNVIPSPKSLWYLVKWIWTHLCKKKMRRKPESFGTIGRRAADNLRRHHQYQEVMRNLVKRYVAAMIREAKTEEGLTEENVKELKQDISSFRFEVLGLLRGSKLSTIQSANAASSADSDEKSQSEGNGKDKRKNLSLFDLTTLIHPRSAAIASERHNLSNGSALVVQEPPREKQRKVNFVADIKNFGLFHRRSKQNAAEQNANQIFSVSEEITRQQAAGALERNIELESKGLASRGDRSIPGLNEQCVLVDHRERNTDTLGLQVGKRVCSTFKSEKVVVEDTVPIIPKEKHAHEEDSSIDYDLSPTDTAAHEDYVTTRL

[9] = molecular target: 14-3-3 protein gamma (Homo sapiens, UniProt P61981); assay: modulators of 14-3-3 gamma client binding – dose response (AID 711); format: functional
14-3-3 protein gamma, sequence (P61981 whole entry): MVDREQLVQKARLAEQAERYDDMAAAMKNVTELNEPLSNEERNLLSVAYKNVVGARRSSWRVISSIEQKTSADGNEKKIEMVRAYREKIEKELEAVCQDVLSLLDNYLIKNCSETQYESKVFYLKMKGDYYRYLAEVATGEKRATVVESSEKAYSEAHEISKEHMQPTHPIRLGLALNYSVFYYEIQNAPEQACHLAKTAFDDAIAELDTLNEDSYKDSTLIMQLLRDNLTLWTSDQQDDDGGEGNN

[10] = molecular target: Mitogen-activated protein kinase 10 (Homo sapiens, UniProt P53779); assay: Dose response biochemical screening assay for inhibitors of c-Jun N-Terminal Kinase 3 (JNK3). [Related pubchem assays: 746 ]
Mitogen-activated protein kinase 10, sequence (P53779 whole entry): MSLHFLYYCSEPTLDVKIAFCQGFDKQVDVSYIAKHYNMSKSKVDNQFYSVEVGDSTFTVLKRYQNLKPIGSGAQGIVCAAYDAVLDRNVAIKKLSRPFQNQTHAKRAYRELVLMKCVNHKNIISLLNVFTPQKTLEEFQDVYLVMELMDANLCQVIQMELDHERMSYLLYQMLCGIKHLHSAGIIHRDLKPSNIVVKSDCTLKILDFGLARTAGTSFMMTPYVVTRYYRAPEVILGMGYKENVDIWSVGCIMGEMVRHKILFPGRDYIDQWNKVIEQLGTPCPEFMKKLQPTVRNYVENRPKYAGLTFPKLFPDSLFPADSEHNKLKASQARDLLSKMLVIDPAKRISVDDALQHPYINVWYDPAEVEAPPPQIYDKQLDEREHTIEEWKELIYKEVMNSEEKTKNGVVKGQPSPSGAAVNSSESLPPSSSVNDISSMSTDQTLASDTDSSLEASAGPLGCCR

[11] = molecular target: T3, fMet-Leu-Phe receptor (Homo sapiens, UniProt P21462); assay: FPR ligands, dose response (AID 519); format: functional
T3 sequence (P21462 whole entry): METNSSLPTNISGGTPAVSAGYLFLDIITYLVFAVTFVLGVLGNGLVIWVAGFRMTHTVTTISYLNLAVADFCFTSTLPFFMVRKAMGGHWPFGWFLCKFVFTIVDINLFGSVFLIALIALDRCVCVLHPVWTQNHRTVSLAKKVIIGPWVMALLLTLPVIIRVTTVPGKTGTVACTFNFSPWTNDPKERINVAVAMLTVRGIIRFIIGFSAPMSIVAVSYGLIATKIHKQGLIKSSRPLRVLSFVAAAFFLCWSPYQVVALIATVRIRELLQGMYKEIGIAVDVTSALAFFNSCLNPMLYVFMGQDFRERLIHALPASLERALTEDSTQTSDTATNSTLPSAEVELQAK

[12] = inhibitors of Vif binding to APOBEC3G peptide, primary screen, biochemical, TR-FRET, GST-Vif 1-94, biotin-A3G peptide, dose response retest (AID 1117319); format: functional;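 note: TR-FRET signal of purified GST-Vif binding a biotinylated A3G peptide; inhibitors lower the FRET signal by blocking Vif and A3G binding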
[13] = cytotoxicity toward NIH3T3 fibroblasts, dose response, counter-screen, cell-based, ATP luminescence, mouse fibroblasts (AID 2010); format: functional;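 note: cells exposed to compound for about 90 hours before reading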
[14] = control 3'UTR Renilla luciferase suppression, dose response, counter-screen for Shn3 inhibitor project, cell-based, Clone20-Shn3RL, cherry-picked (AID 624133); format: functional
[15] = THP-1 cell cytotoxicity, dose response, cytotoxicity control for Vif-APOBEC3G degradation inhibitor project, THP-1 cells (AID 1117359); format: functional; settings: Human immunodeficiency virus 1, THP-1
[16] = Shn3 3'UTR reporter inhibitors, dose response, cell-based, Clone20 osteoblasts, firefly luciferase, cherry-picked (AID 624132); format: functional;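 note: firefly luciferase luminescence from reporter carrying the Shn3 3'UTR in osteoblasts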
[17] = test system: INS1; assay: beta cell apoptosis inhibitors, cytokine rescue, dose response, luminescence, retest (AID 449756); format: functional, cell-based; settings: Rattus norvegicus;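 note: cell death triggered by IL-1 beta plus TNF-alpha plus IFN-gamma mixture; protective hits raise ATP signal compared with cytokine alone wells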
[18] = inhibitors of intracellular T. cruzi replication, confirmation, NIH3T3 host cells, beta-gal luminescence (AID 2044); format: functional, cell-based;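 note: intracellular parasites grown in NIH/3T3 mouse fibroblasts as host cells; luminescent beta-galactosidase reporter signal from transgenic T. cruzi replicating inside host cells; inhibitors lower the luminescence signal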
[19] = molecular target: T4, Probable nicotinate-nucleotide adenylyltransferase (Staphylococcus aureus (strain N315), UniProt P65502); format: functional, Staphylococcus aureus subsp. aureus N315;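 for IC50 Mean: confirmatory dose-response retesting of NadD inhibitor hits first found in an ultra-high-throughput screen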
T4 sequence (P65502 whole entry): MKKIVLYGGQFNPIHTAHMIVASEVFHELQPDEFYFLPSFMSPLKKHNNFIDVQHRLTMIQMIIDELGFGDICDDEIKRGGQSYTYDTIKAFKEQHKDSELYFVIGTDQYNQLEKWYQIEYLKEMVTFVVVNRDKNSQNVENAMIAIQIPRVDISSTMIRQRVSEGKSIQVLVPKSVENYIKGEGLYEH

[20] = molecular target: T4, Probable nicotinate-nucleotide adenylyltransferase; format: functional, Staphylococcus aureus subsp. aureus N315; settings: read-out: IC50_Mean
[21] = molecular target: Galanin receptor type 2 (Homo sapiens, UniProt O43603); assay: Dose Response cell-based high-throughput screening assay to identify agonists of galanin receptor 2 (GALR2). [Related pubchem assays: 864 ]; format: functional
Galanin receptor type 2, sequence (O43603 whole entry): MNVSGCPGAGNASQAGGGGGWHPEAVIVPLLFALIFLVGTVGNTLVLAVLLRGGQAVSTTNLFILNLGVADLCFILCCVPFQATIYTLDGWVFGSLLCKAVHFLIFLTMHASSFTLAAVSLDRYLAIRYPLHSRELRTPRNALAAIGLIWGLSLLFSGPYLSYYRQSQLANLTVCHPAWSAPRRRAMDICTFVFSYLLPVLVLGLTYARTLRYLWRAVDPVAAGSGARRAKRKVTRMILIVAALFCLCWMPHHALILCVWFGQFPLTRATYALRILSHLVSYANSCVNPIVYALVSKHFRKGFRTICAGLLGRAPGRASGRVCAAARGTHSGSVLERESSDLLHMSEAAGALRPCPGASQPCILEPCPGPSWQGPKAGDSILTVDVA

[22] = HepG2 cell cytotoxicity, dose response, cytotoxicity control for Shn3 inhibitor project, CellTiter-Glo, cherry-picked (AID 624134); format: functional, cell-based
[23] = C. albicans growth with fluconazole, confirmation, fluorescence, retest (AID 2467); format: functional, cell-based
[24] = Glucagon-like peptide 1 release potency, NCI-H716 cell line, dose-response, half-maximal inhibitory concentration (AID 1117344); format: functional, cell-based
[25] = HeLa 2N DNA content increase, dose response, cell-based, IC50 (AID 1117349); format: functional
[26] = NIH-3T3 fibroblast cytotoxicity, dose response, cytotoxicity control, cell-based, fluorescence, Alamar Blue, secondary assay (AID 2327); format: functional;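 note: NIH-3T3 mouse fibroblasts cultured with fluconazole at 8 µg/mL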
[27] = molecular target: Cytochrome P450 2C19 (Homo sapiens, UniProt P33261); assay: Cytochrome panel assay with activity outcomes. Panel member name: p450-cyp2c19 Compounds with AC50 equal or less than 10 uM are considered active; format: functional; settings: read-out: AC50
Cytochrome P450 2C19, sequence (P33261 whole entry): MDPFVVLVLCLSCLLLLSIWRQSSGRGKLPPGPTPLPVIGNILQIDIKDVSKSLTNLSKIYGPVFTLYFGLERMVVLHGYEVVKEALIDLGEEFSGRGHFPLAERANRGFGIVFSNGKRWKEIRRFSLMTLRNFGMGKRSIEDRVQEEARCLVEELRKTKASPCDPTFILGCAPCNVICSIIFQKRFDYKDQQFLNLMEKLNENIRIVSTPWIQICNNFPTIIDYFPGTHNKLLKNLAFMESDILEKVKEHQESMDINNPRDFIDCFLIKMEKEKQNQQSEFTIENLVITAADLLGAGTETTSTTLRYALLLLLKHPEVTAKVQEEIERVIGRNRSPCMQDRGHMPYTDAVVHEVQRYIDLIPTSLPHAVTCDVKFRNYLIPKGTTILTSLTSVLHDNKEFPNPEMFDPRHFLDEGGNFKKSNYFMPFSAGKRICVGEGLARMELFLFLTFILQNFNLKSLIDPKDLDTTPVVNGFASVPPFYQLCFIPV

[28] = molecular target: Heat shock protein HSP 90-alpha (Homo sapiens, UniProt P07900); format: functional, organism-based
[29] = molecular target: Cytochrome P450 2C9 (Homo sapiens, UniProt P11712)
Cytochrome P450 2C9, sequence (P11712 whole entry): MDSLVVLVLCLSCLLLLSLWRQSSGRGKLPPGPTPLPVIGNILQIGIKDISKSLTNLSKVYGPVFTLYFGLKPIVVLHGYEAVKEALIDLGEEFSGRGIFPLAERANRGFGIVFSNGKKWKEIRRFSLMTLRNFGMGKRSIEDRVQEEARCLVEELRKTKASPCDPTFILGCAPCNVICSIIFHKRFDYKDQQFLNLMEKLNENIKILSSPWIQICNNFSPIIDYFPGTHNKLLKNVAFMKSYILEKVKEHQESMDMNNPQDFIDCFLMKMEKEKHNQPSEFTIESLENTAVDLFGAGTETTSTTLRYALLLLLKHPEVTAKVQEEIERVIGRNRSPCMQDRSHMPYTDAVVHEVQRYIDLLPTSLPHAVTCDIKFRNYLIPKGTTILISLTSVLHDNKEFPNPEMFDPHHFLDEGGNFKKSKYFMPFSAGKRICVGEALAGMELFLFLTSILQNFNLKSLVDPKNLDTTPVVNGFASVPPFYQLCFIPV

[30] = molecular target: Beta-2 adrenergic receptor (Homo sapiens, UniProt P07550); assay: beta2AR agonists driving receptor internalization, dose response, cell-based, FAP fluorogen, flow cytometry, cherry pick 1 (AID 588763); format: functional
Beta-2 adrenergic receptor, sequence (P07550 whole entry): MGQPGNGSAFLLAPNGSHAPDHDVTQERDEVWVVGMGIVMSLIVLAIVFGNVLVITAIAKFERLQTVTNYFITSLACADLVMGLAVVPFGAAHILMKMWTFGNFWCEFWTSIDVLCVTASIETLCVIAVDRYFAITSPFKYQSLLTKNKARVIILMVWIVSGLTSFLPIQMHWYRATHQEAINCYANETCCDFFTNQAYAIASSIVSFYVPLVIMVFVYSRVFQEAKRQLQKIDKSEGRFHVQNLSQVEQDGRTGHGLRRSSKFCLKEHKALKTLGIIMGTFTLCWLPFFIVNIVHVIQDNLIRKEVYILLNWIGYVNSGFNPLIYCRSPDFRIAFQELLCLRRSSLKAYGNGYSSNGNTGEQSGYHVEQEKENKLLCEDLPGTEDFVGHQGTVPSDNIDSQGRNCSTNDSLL

[31] = molecular target: T5, Serine/threonine-protein phosphatase (Candida dubliniensis (strain CD36 / CBS 7987 / NCPF 3949 / NRRLY-17841) (Yeast), UniProt B9W6M3); assay: calcineurin pathway inhibitors in yeast reporter, dose response, S. cerevisiae, CDRE-lacZ, luminescence, secondary (AID 2388); format: functional, cell-based;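 note: yeast reporter cells carrying a calcineurin-responsive lacZ construct stimulated with calcium chloride; luminescent beta-galactosidase reporter signal in whole cells rather than isolated phosphatase activity; potency for inhibition where a drop in reporter signal means calcineurin blockade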
T5 sequence (B9W6M3 whole entry): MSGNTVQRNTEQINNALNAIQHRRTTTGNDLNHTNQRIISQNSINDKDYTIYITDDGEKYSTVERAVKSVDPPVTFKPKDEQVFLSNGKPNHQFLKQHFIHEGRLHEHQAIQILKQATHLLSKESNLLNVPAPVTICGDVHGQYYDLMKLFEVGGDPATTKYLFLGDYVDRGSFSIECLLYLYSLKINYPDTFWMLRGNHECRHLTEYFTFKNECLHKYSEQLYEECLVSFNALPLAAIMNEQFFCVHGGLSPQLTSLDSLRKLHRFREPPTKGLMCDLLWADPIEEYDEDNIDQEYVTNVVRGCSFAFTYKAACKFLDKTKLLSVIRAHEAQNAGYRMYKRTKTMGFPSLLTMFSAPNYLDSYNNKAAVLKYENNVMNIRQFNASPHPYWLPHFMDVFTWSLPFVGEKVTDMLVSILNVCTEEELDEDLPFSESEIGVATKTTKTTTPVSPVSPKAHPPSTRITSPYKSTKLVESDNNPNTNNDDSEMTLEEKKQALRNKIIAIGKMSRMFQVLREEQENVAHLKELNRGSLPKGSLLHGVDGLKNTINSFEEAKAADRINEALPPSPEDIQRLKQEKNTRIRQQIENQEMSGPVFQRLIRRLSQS

[32] = molecular target: ATP-dependent molecular chaperone HSP82 (Candida albicans (strain WO-1) (Yeast), UniProt C4YTQ8); assay: loss of DOC-induced GRE-beta-galactosidase reporter signal, dose response, Hsp90 inhibitor project, S. cerevisiae, luminescence (AID 2400); format: functional, cell-based;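 note: beta-galactosidase luminescence from glucocorticoid response element reporter as proxy for Hsp90 function; inhibitor potency where signal loss means Hsp90 inhibition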
ATP-dependent molecular chaperone HSP82, sequence (C4YTQ8 whole entry): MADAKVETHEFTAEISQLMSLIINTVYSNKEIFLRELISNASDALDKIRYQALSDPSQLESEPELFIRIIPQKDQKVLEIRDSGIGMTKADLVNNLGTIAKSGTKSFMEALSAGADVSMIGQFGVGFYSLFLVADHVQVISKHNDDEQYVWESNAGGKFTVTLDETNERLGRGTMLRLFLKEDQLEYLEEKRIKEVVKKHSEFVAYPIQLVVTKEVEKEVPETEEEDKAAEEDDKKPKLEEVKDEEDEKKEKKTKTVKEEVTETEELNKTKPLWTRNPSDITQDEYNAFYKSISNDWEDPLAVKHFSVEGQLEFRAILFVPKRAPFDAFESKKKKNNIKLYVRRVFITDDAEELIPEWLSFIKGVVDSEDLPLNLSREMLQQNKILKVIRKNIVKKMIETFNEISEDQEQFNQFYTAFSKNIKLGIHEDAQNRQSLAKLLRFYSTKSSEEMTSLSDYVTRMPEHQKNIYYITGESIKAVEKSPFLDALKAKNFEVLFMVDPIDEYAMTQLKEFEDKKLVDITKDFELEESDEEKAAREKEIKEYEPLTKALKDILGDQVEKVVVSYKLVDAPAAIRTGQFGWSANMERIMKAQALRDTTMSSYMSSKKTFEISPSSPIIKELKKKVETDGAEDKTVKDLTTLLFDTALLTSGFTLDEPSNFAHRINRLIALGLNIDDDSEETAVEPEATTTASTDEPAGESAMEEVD

[33] = HeLa 4N DNA content increase, dose response, cell-based, IC50 (AID 1117351); format: functional
[34] = half-maximal inhibitory concentration for glucagon-like peptide-1 release, STC-1 cell line, dose-response (AID 1117345); format: functional, cell-based
[35] = molecular target: Cytochrome P450 2D6 (Homo sapiens, UniProt P10635);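 note: CYP2D6 member of a cytochrome P450 panel assay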
Cytochrome P450 2D6, sequence (P10635 whole entry): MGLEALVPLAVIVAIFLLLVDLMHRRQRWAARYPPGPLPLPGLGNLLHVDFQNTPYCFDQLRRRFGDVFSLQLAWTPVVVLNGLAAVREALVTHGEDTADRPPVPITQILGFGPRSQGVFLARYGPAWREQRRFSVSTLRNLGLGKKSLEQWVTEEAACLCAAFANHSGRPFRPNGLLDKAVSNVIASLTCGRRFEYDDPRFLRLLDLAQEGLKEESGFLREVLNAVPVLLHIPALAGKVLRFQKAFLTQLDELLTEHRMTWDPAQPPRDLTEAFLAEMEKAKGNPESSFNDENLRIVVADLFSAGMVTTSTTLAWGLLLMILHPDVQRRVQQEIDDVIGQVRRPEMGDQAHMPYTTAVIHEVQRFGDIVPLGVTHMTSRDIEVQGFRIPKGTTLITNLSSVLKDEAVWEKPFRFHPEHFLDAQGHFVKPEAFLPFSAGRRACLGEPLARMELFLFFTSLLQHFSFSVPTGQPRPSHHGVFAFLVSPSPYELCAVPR

[36] = molecular target: Photoreceptor-specific nuclear receptor (Homo sapiens, UniProt Q9Y5X4); assay: NR2E3 inverse agonists, dose response, biochemical, TR-FRET (AID 463256); format: functional
Photoreceptor-specific nuclear receptor, sequence (Q9Y5X4 whole entry): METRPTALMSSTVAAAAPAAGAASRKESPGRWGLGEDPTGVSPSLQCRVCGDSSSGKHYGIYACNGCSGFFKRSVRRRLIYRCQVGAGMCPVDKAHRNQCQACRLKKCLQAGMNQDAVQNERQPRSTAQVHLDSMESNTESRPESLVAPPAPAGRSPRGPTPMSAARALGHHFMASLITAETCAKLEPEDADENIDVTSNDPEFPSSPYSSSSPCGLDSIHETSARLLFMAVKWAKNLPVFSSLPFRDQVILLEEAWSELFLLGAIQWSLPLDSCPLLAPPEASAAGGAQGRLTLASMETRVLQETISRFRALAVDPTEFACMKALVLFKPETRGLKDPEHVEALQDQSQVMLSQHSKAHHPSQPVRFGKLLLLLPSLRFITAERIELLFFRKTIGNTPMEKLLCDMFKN

[37] = molecular target: Peroxisome proliferator-activated receptor gamma/Nuclear receptor corepressor 2 (Homo sapiens, UniProt P37231+Q9Y618); assay: Counterscreen for NR2E3 inverse agonists: TR-FRET-based biochemical high throughput dose response assay to identify inverse agonists of the interaction between peroxisome proliferator-activated receptor gamma (PPARg) and nuclear receptor co-repressor 2 (NCOR2).; format: functional

CC(C)c1ccc(-c2[nH]c(N3CCCC3)nc3nnc(N)c2-3)cc1
EC50 [1]: > 120 µM (not active)
EC50 [2]: > 150 µM (not active)
EC50 [3]: 103 µM (active)
CC50 [4]: > 40 µM (active)
EC50 [5]: > 150 µM (not active)
EC50 [6]: > 120 µM (not active)
EC50 [7]: 12.9 µM (active)

COc1ccc(Nc2cc(C)nc3ccccc23)cc1
EC50 [8]: 2.99 µM (active)
IC50 [9]: > 50 µM (not active)

CCCOc1ccc(C2C(C(=O)c3ccc(C)o3)=C(O)C(=O)N2CCCn2ccnc2)cc1 (configuration not stated)
IC50 [10]: 19.7 µM (not active)
Ki [11]: 13.8 µM (active)

Cc1cccc2sc(NNC(=O)c3ccc(S(=O)(=O)N4CC(C)CC(C)C4)cc3)nc12 (configuration not stated)
IC50 [12]: > 100 µM (active)
EC50 [2]: 4.98 µM (active)
EC50 [3]: 1.18 µM (active)
EC50 [13]: 7.47 µM (active)
AC50 [14]: 5.72 µM (active)
CC50 [15]: 2.27 µM (active)
AC50 [16]: 2.57 µM (active)
AC50 [17]: 1.73 µM (active)
EC50 [18]: 1.22 µM (active)
IC50 [19]: 8.16 µM (active)
IC50 [20]: 42.1 µM (active)
EC50 [21]: > 55.7 µM (not active)
AC50 [22]: 5.61 µM (active)

Clc1ccccc1C(c1ccccc1)(c1ccccc1)n1ccnc1 [CLOTRIMAZOLE]
EC50 [2]: 7.15 µM (active)
EC50 [23]: 0.628 µM (active)
EC50 [3]: 4.3 µM (active)
IC50 [24]: 20.2 µM (inactive)
IC50 [25]: > 10 µM (inactive)
EC50 [26]: 11.6 µM (active)
AC50 [27]: 10 µM (active) and 7.94 µM (inconclusive)
AC50 [28]: < 0.195 µM (active)
AC50 [29]: 1 µM (active) and 316 nM (active)
EC50 [30]: 4.69 µM (active)
EC50 [31]: > 180 µM (inactive)
EC50 [32]: > 150 µM (inactive)
EC50 [5]: > 150 µM (not active)
IC50 [33]: > 10 µM (inactive)
IC50 [34]: > 40 µM (inactive)
AC50 [35]: 10 µM (active) and 39.8 µM (inconclusive)

COc1cc2ccccc2cc1C(=O)Nc1ccc2oc(=O)ccc2c1
IC50 [36]: 2.28 µM (active)
IC50 [37]: 2.86 µM (active)
